{"source": "patent US5750362A", "about": "“Methods for identifying substances with a potential herbicidal or growth-regulating action by means of plant transporter proteins, the use of the transporter proteins, and substances with a herbicidal and growth-regulating action” (BASF Aktiengesellschaft, priority 1993, dated 1998)", "key": {"[1]": {"molecular_target": "T1, amino-acid transporter AAP2 (Arabidopsis thaliana, UniProt Q38967)", "T1 construct": "expressed in transfected cells; host or cells: Saccharomyces cerevisiae mutant 22574d (also printed 22457d)", "T1 sequence (Q38967 1-493)": "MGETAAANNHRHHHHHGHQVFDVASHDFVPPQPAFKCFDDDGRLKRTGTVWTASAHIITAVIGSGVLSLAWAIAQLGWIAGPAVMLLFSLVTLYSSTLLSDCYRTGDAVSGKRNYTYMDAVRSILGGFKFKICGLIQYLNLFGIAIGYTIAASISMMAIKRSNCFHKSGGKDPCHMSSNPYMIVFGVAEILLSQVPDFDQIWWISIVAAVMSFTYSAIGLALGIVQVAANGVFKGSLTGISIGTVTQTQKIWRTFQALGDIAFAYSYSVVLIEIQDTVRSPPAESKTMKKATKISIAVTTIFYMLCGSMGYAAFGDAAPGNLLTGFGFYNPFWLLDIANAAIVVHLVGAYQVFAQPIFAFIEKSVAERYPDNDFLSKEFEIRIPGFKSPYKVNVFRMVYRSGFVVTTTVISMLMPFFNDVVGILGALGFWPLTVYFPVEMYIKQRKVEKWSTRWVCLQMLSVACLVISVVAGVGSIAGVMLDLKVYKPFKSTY", "test": "Uptake of radiolabeled L-proline by yeast mutant 22457d-AAP2 expressing the plant amino-acid transporter", "type": "cell-based", "settings": "read-out: Activity relative to control [%]", "protocol": "Transporter investigations are carried out on the yeast mutant 22574d (Jauniaux & Grenson, Eur. J. Biochem. 190: 39-44, 1990), which harbors a mutation in the gene for amino-acid permease, and on the yeast mutant JT 16 (Tanaka and Fink, Gene 38: 205-214, 1985) which is incapable of histidine uptake, for identification of inhibitors of plant amino-acid transporters. These mutants are transformed with cDNA sequences which code for plant amino-acid transporters and lead to expression of functional transporters in the yeast cells. The cDNA sequences are cDNA sequences which code for the amino-acid transporters AAP1 and AAP2 from Arabidopsis thaliana (Frommer et al., 1993, Proc. Natl. Acad. Sci. USA 90: 5944-5948; Kwart et al., 1993, Plant J. 4:993-1002). For the measurements, cells of these mutants are cultured in minimal medium (NAAG+5 mmol/l proline) at 28° C. and harvested in the logarithmic phase (OD600 =0.6). The cells are spun down in a centrifuge at 4000 rpm and 4 degrees Celsius for 10 minutes and washed 2× with AUB buffer (modified AAB buffer, Ljungdahl et al.). The cell concentration is adjusted to an OD600 of 25 in AUB buffer.\n100 μl portions of the cell suspension are mixed with 100 μl of a 1 mmol/l L-proline solution (18.5 kBq of L-[14C]-proline) and various concentrations of the appropriate substance to be investigated. After 20, 60, 120 and 180 seconds, a 50 μl aliquot is removed, diluted in 4 ml -of ice-cold AUB buffer and filtered through glass fever [sic] filter. In order to remove nonspecifically bound L-[14C]-proline, the cells are washed 2× with 4 ml of ice-cold water each time. The radioactivity retained on the glass filter is then measured in a liquid scintillation counter. The radioactivity reflects the amount of radiolabeled proline taken up by the cells. Uptake of radiolabeled proline without addition of a potential inhibitor is determined as one control. Cells of each of the mutants 22574d and JY 16 which have not been transformed with cDNA sequences coding for plant amino-acid transporters are used as further control. Results of measurements of this type on the mutants 22457d-AAP2 which expresses the amino-acid transporter AAP2 from Arabisopsis [sic] thaliana are shown in the following table.\nFor the investigations, yeast cells of the strain 22457d were transformed with a cDNA sequence which codes for the amino-acid transporter AAP2, and the uptake of radiolabeled proline in the presence of various substances was determined. The various substances tested, their concentration, and the activity of the transporter, shown as percentage activity of the control with which no potential inhibitors were added, are indicated."}, "[2]": {"molecular_target": "T2, sucrose transporter P62 (StSUT1) (Solanum tuberosum, UniProt Q43653)", "T2 construct": "whole-cell [14C]-sucrose uptake; no tag or borders given", "T2 sequence (Q43653 1-516)": "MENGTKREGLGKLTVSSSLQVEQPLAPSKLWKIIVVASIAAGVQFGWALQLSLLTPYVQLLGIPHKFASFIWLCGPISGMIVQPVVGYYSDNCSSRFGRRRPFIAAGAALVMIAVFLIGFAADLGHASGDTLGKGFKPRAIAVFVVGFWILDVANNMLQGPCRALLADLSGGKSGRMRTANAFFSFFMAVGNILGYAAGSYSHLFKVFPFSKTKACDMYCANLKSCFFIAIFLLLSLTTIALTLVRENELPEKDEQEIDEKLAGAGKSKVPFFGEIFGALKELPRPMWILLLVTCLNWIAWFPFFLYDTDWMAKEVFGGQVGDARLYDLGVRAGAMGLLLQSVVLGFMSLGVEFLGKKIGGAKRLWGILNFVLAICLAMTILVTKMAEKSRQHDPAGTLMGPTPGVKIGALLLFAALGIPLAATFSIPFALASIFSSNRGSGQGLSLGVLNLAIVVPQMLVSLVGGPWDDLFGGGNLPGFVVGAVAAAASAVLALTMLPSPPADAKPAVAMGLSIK", "test": "[14C]-sucrose uptake by yeast strain SUSY-7-P62 (StSUT1) expressing the potato sucrose transporter", "type": "cell-based", "settings": "pH 3.8, read-out: Activity relative to the control [%]", "from_the_text": "Yeast cells of the strain SUSY7 (Riesmeier et al., 1992, EMBO J. 11: 4705-4713) are used to identify substances which have an inhibitory effect on sucrose transporters from potato. Cells of this strain are transformed with a cDNA sequence which codes for the sucrose transporter P62 (StSUT1) from potato (WO 94/00574, Riesmeier et al., 1993, Plant Cell 5:1591-1598) and which ensures expression of a functional transporter in the cells. The resulting yeast strain was called SUSY-7-P62 (StSUT1). The yeast cells are cultured in minimal medium (SD +2% (w/v) sucrose, pH 3.8) at 28° C. and harvested in the logarithmic phase (OD600 =0.6). The cells are spun down at 4000 rpm for 10 minutes and washed twice with SD medium. A cell concentration of c=50 g/l in SD medium is adjusted according to the wet weight of the cells, and 200 Al aliquot fractions are taken. Before the actual reaction, the cells are incubated in 10 mM glucose for 5 min and adjusted to pH 3.8 with MES buffer. The reaction is started by adding 200 Al of a 0.2 mmol/l [14C]-sucrose solution (3 mCi/mmol) in SD medium (pH 3.8). After 20, 60, 120, 180 and 240 seconds, 70 μl portions of the suspension are removed and pipetted into 4 ml of ice-cold water in order to stop the reaction. The cells are filtered off on glass fiber filters and washed twice with ice-cold water. The radioactivity on the filters is subsequently determined in a liquid scintillation counter. The substances to be tested are added 30 seconds before addition of the sucrose. The uptake of radiolabeled sucrose without addition of a potential inhibitor is determined as one control. Cells of the strain SUSY7 which are not transformed with cDNA sequences coding for a sucrose transporter from potato are employed as further control.\nThe various tested substances, their concentration and the activity of the transporter, shown as percentage activity of the control in which no potential inhibitors were added, are indicated."}, "[3]": {"molecular_target": "T3, ammonium transporter AMT1 (Arabidopsis thaliana, UniProt P54144)", "T3 construct": "expressed in transfected cells; host or cells: Saccharomyces cerevisiae 26972c (mutations in MEP1 and MEP2)", "T3 sequence (P54144 1-501)": "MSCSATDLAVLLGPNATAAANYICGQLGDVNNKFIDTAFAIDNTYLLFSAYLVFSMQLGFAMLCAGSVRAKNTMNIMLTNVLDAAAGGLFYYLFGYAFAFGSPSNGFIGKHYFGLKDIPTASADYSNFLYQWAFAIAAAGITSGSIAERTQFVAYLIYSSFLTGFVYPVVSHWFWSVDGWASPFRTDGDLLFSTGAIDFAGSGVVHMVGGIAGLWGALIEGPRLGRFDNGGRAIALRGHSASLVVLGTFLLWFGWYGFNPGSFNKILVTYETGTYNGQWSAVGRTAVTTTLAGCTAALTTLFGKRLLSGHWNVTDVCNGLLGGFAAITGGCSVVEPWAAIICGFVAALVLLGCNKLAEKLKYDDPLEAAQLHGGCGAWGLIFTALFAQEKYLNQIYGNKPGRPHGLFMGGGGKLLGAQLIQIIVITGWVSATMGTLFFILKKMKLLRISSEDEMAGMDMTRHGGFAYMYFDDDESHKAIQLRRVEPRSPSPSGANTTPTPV", "test": "cell-based", "description": "The measurements of transport identify inhibitors of plant ammonium transporters are carried out with the structural analog methylamine because radiolabeled ammonium is not commercially obtainable.\nThe yeast cells are transformed by standard methods with cDNA sequences which code for an ammonium transporter from plants and which permit expression of a functional transporter in the yeast cells. […] The cells are cultured in NAAG-medium (2% glucose, 1.7 g/l yeast nitrogen-base w/o amino acids and ammonium sulfate (Difco), supplemented with 500 μg/ml L-proline) at 28 degrees Celsius, and harvested in the logarithmic phase (OD660.=0.6). The cells are then spun down in a centrifuge at 4000 rpm and 4 degrees Celsius for 10 minutes, washed twice with 20 mM sodium phosphate buffer, pH 7, and taken up in the same buffer to an 0D660 of 8. 200 μl aliquot fractions of the cell suspension are taken. 5 minutes before the actual measurement,the yeasts are activated by addition of 100 mM glucose and incubated at 30 degrees Celsius. To start the reaction, 100 μl of the cell suspension are added to 100 µl of reaction mixture (20 mM Na phosphate buffer, pH7; 18.5 kBq of [^14 C]-methylamine (NEN); 100 M methylamine; substance to be tested depending on the experiment (see FIG. 4)). In each case 10, 60, 120 and 180 seconds after starting the reaction, 50 μl aliquots are taken, added to 4 ml of ice-cold 5 mM methylamine solution and filtered on glass fibre filters. After the filters have been washed with a further 8 ml of a methylamine solution, the radioactivity on the filters is subsequently determined in a liquid scintillation counter. Inhibitors are added 60 seconds before adding the glucose.\nThe uptake of radiolabeled methylamine without addition of a potential inhibitor is determined as one control."}, "plants": {"tested_on": "plants", "test": "Herbicidal activity on plants", "type": "in vivo", "settings": "whole plants; result in words"}, "[4]": {"tested_on": "sucrose transporter P62 (StSUT1)", "test": "Activation of sucrose transport by preincubation of the yeast cells", "type": "cell-based, Solanum tuberosum", "protocol": "The transport of sucrose by the sucrose transporter P62 (StSUT1) from Solanum tuberosum can be increased by previous energizing of the yeast cells by incubation in glucose, stachyose and adenine. The same increase in transport activity is achieved by reducing the pH to pH 3.8 in the measurement. The measurement of transport to determine the activation takes place as described in Example 3 but the cells are incubated before the actual measurement not in 10 mM glucose for 5 min but in solutions of various concentrations of glucose, stachyose and adenine for 5 min. Yeast cells which are not incubated in solutions of these substances before the measurement act as control. The following table indicates the extent of activation of sucrose transport with various concentrations of glucose, stachyose and adenine compared with the control."}}, "note": "Where two headings read alike, the source gives them in different places.", "data": [{"smiles": "O=C(O)C1CCN1", "note": "(stereo not shown) [Azetidine-2-carboxylate]", "values": [{"measurement": "remaining activity at 10000 µM", "setting": "[1]; L-[14C]-proline uptake, tested substance 10 mM", "result": 62, "unit": "%"}]}, {"smiles": "O=C(O)[C@H]1CCCN1", "note": "[D-Proline]", "values": [{"measurement": "remaining activity at 10000 µM", "setting": "[1]", "result": 90, "unit": "%"}]}, {"smiles": "O=[N+]([O-])c1ccc(O)c([N+](=O)[O-])c1", "note": "[DNP]", "values": [{"measurement": "remaining activity at 100 µM", "setting": "[1]", "result": "7.6 ± 1.6", "unit": "%"}, {"measurement": "remaining activity at 100 µM", "setting": "[2]", "result": 3, "unit": "%"}, {"measurement": "remaining activity at 100 µM", "setting": "[3]; pH 7, read-out: Activity relative to the control [%]", "result": 18, "unit": "%"}]}, {"smiles": "CN", "note": "[Methylamine]", "values": [{"measurement": "remaining activity at 500 µM", "setting": "[3]; pH 7, [14C]-methylamine uptake, tested substance 500 μM, read-out: Activity relative to the control [%]", "result": 40, "unit": "%"}, {"measurement": "Herbicidal activity on plants", "setting": "plants", "result": "herbicidal activity on plants"}]}, {"smiles": "OC[C@H]1O[C@H](OC[C@H]2O[C@H](OC[C@H]3O[C@H](O[C@]4(CO)O[C@H](CO)[C@@H](O)[C@@H]4O)[C@H](O)[C@@H](O)[C@@H]3O)[C@H](O)[C@@H](O)[C@H]2O)[C@H](O)[C@@H](O)[C@H]1O", "note": "[Stachyose]", "values": [{"measurement": "Effect on sucrose transport as a function of concentration", "setting": "[4]; preincubation of yeast cells, result in words", "result": "stimulates sucrose transport at low concentrations, while this effect is reversed at high concentrations (c>0.4 mmol/l)"}, {"measurement": "Activity relative to the control [%]", "setting": "[4]; sucrose transport after 5 min preincubation with the substance at c1 [0.2 mol/l], 200000 µM", "result": "144 ± 9", "unit": "%"}, {"measurement": "Activity relative to the control [%]", "setting": "[4]; sucrose transport after 5 min preincubation with the substance at c2 [2 mmol/l]", "result": "101 ± 8", "unit": "%"}]}]}
